According to patent US20190388425A1, “SUBSTITUTED IMIDAZOPYRIDINPYRIMIDINES” (Bayer Pharma Aktiengesellschaft, priority 2017, published 2019):

These compounds were tested against T1, human full-length MKNK1 (Homo sapiens, UniProt Q9BUB5, T385D) (assay: MKNK1 kinase high ATP assay (TR-FRET)). Settings: TR-FRET, 2 mM ATP (high ATP), 15 min preincubation with enzyme, 30 min reaction at 22° C.; read-out: MKNK1 IC50.
T1 construct: GST (N); purchased Carna Biosciences 02-145; host or cells: insect cells (baculovirus expression system)
Type: biochemical
Outline: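 Full-length human MKNK1 (T385D) preincubated 15 min at 22 °C with compound in HEPES pH 7.5/MgCl2/DTT buffer; reaction with 2 mM ATP (final) and 0.06 μM biotinylated peptide (final), 30 min at 22 °C.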

T1 sequence (Q9BUB5 1-424 isoform Q9BUB5-2 T344D): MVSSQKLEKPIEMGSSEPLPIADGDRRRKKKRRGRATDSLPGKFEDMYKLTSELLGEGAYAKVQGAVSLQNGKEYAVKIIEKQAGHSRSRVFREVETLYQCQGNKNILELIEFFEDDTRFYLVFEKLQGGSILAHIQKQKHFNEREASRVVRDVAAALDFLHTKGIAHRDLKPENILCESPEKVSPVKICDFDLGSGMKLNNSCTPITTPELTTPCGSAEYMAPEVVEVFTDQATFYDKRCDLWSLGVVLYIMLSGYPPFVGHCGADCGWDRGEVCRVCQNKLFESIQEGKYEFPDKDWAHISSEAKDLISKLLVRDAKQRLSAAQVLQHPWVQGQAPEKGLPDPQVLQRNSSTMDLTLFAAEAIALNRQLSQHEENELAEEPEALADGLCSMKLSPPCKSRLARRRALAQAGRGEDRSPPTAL

SMILES	IC50 [nM]
CN(C)C(=O)[C@H]1CCc2c(sc3ncnc(Nc4cc(Cl)c5n(c4=O)C(C)(C)NC5=O)c23)C1 [Example 111, (7S)-4-[(8-Chloro-3,3-dimethyl-1,5-dioxo-1,2,3,5-tetrahydroimidazo[1,5-a]pyridin-6-yl)amino]-N,N-dimethyl-5,6,7,8-tetrahydro[1]benzothieno[2,3-d]pyrimidine-7-carboxamide]	0.3
O=C1NC2(CCCC2)n2c1c(Cl)cc(Nc1ncnc3sc4c(c13)CC[C@H](C(=O)O)C4)c2=O [Example 84, (7S)-4-[(8′-Chloro-1′,5′-dioxo-1′,5′-dihydro-2′H-spiro[cyclopentane-1,3′-imidazo[1,5-a]pyridin]-6′-yl)amino]-5,6,7,8-tetrahydro[1]benzothieno[2,3-d]pyrimidine-7-carboxylic acid]	1
CC1(C)NC(=O)c2c(Cl)cc(Nc3ncnc4sc5c(c34)CC[C@H](C(N)=O)C5)c(=O)n21 [Example 110, (7S)-4-[(8-Chloro-3,3-dimethyl-1,5-dioxo-1,2,3,5-tetrahydroimidazo[1,5-a]pyridin-6-yl)amino]-5,6,7,8-tetrahydro[1]benzothieno[2,3-d]pyrimidine-7-carboxamide]	1.2
Cc1cc(Nc2ncnc3sc4c(c23)CC[C@H](C(=O)N2CC(C#N)C2)C4)c(=O)n2c1C(=O)NC21CCC(F)(F)CC1 [Example 54, 1-({(7S)-4-[(4,4-Difluoro-8′-methyl-1′,5′-dioxo-1′,5′-dihydro-2′H-spiro[cyclohexane-1,3′-imidazo[1,5-a]pyridin]-6′-yl)amino]-5,6,7,8-tetrahydro[1]benzothieno[2,3-d]pyrimidin-7-yl}carbonyl)azetidine-3-carbonitrile]	4.4
Cc1cc(Nc2ncnc3sc4c(c23)CC[C@H](C(=O)N2CC(C#N)C2)C4)c(=O)n2c1C(=O)NC21CS(=O)(=O)C1 [Example 68, 1-({(7S)-4-[(8-Methyl-1′,1′-dioxido-1,5-dioxo-1,5-dihydro-2H-spiro[imidazo[1,5-a]pyridine-3,3′-thietan]-6-yl)amino]-5,6,7,8-tetrahydro[1]benzothieno[2,3-d]pyrimidin-7-yl}carbonyl)azetidine-3-carbonitrile]	2.5
Cc1cc(Nc2ncnc3sc4c(c23)CC[C@H](C(=O)N2CCC2)C4)c(=O)n2c1C(=O)NC21CCC1 [Example 21, 6′-{[(7S)-7-(Azetidin-1-ylcarbonyl)-5,6,7,8-tetrahydro[1]benzothieno[2,3-d]pyrimidin-4-yl]amino}-8′-methyl-2′H-spiro[cyclobutane-1,3′-imidazo[1,5-a]pyridine]-1′,5′-dione]	0.6
O=C1NC2(CCCC2)n2c1c(Cl)cc(Nc1ncnc3sc4c(c13)CC[C@H](C(=O)N1C[C@H]3C[C@@H]1CO3)C4)c2=O [Example 92, 8′-Chloro-6′-({(7S)-7-[(1R,4R)-2-oxa-5-azabicyclo[2.2.1]heptane-5-carbonyl]-5,6,7,8-tetrahydro[1]benzothieno[2,3-d]pyrimidin-4-yl}amino)-2′H-spiro[cyclopentane-1,3′-imidazo[1,5-a]pyridine]-1′,5′-dione]	1
Cc1cc(Nc2ncnc3sc4c(c23)CC[C@H](C(=O)N2CC(C#N)C2)C4)c(=O)n2c1C(=O)NC2(C)C [Example 29, 1-({(7S)-4-[(3,3,8-Trimethyl-1,5-dioxo-1,2,3,5-tetrahydroimidazo[1,5-a]pyridin-6-yl)amino]-5,6,7,8-tetrahydro[1]benzothieno[2,3-d]pyrimidin-7-yl}carbonyl)azetidine-3-carbonitrile]	1
Cc1cc(Nc2ncnc3sc4c(c23)CC[C@H](C(=O)N2CC(N(C)C)C2)C4)c(=O)n2c1C(=O)NC2(C)C [Example 30, 6-{[(7S)-7-{[3-(Dimethylamino)azetidin-1-yl]carbonyl}-5,6,7,8-tetrahydro[1]benzothieno[2,3-d]pyrimidin-4-yl]amino}-3,3,8-trimethyl-2,3-dihydroimidazo[1,5-a]pyridine-1,5-dione]	1.3
CC1(C)NC(=O)c2c(Cl)cc(Nc3ncnc4sc5c(c34)CC[C@H](C(=O)O)C5)c(=O)n21 [Example 109, (7S)-4-[(8-Chloro-3,3-dimethyl-1,5-dioxo-1,2,3,5-tetrahydroimidazo[1,5-a]pyridin-6-yl)amino]-5,6,7,8-tetrahydro[1]benzothieno[2,3-d]pyrimidine-7-carboxylic acid]	26.7
N#CC1CN(C(=O)[C@H]2CCc3c(sc4ncnc(Nc5cc(Cl)c6n(c5=O)C5(CSC5)NC6=O)c34)C2)C1 [Example 104, 1-{(7S)-4-[(8-Chloro-1,5-dioxo-1,5-dihydro-2H-spiro[imidazo[1,5-a]pyridine-3,3′-thietan]-6-yl)amino]-5,6,7,8-tetrahydro[1]benzothieno[2,3-d]pyrimidine-7-carbonyl}azetidine-3-carbonitrile]	0.2
Cc1cc(Nc2ncnc3sc4c(c23)CC[C@H](C(=O)N2CC(N(C)C)C2)C4)c(=O)n2c1C(=O)NC21CCCC1 [Example 40, 6′-{[(7S)-7-{[3-(Dimethylamino)azetidin-1-yl]carbonyl}-5,6,7,8-tetrahydro[1]benzothieno[2,3-d]pyrimidin-4-yl]amino}-8′-methyl-2′H-spiro[cyclopentane-1,3′-imidazo[1,5-a]pyridine]-1′,5′-dione]	0.3
Cc1cc(Nc2ncnc3sc4c(c23)CC[C@H](C(=O)N2CC[C@H](N(C)C)C2)C4)c(=O)n2c1C(=O)N[C@]21CC[C@@](O)(C(F)(F)F)CC1 [Example 63, (cis)-6′-{[(7S)-7-{[(3S)-3-(Dimethylamino)pyrrolidin-1-yl]carbonyl}-5,6,7,8-tetrahydro[1]benzothieno[2,3-d]pyrimidin-4-yl]amino}-4-hydroxy-8′-methyl-4-(trifluoromethyl)-2′H-spiro[cyclohexane-1,3′-imidazo[1,5-a]pyridine]-1′,5′-dione]	1.6
O=C1NC2(CCC2)n2c1c(Cl)cc(Nc1ncnc3sc4c(c13)CC[C@H](C(=O)N1CCC1)C4)c2=O [Example 96, 6′-{[(7S)-7-(Azetidine-1-carbonyl)-5,6,7,8-tetrahydro[1]benzothieno[2,3-d]pyrimidin-4-yl]amino}-8′-chloro-2′H-spiro[cyclobutane-1,3′-imidazo[1,5-a]pyridine]-1′,5′-dione]	0.1
C[C@@H]1COCCN1C(=O)[C@H]1CCc2c(sc3ncnc(Nc4cc(Cl)c5n(c4=O)C4(CCCCC4)NC5=O)c23)C1 [Example 79, 8′-Chloro-6′-{[(7S)-7-{[(3R)-3-methylmorpholin-4-yl]carbonyl}-5,6,7,8-tetrahydro[1]benzothieno[2,3-d]pyrimidin-4-yl]amino}-2′H-spiro[cyclohexane-1,3′-imidazo[1,5-a]pyridine]-1′,5′-dione]	0.3
O=C1NC2(CSC2)n2c1c(Cl)cc(Nc1ncnc3sc4c(c13)CC[C@H](C(=O)N1C[C@H]3C[C@@H]1CO3)C4)c2=O [Example 108, 8-Chloro-6-({(7S)-7-[(1R,4R)-2-oxa-5-azabicyclo[2.2.1]heptane-5-carbonyl]-5,6,7,8-tetrahydro[1]benzothieno[2,3-d]pyrimidin-4-yl}amino)-2H-spiro[imidazo[1,5-a]pyridine-3,3′-thietane]-1,5-dione]	0.8
